Experimental data from patent US20080300298A1, “Honokiol Derivates For the Treatment of Proliferative Disorders” (priority 2005, published 2008).

Key:
[1] = tested on: MCF-7 and MDA-MB-231 breast cancer cell lines; assay: MTT assay of drug combinations (additive model); assay type: cell-based
Protocol: 3-(4,5-dimethylthiazol-2-yl)-2,5-diphenyltetrazolium bromide (MTT) proliferation assays: 3×10^3 cells/well were plated in 96-well plates, cultured in the appropriate culture media containing 10% FCS, and treated with either control vehicle or various concentrations of HNK, alone or with a secondary drug, as indicated. All secondary drugs were freshly diluted in growth media and immediately added to cells along with the HNK. After 24 hours of incubation at 37° C., 5% CO2, the cells were cultured for four hours with 10% MTT reagent (5 mg/ml; Sigma-Aldrich, St. Louis, Mo.). The medium was aspirated, and the cells were dissolved by dimethyl sulfoxide (DMSO). Absorbance of the formazan product was measured by an enzyme-linked immunosorbent assay reader (Macintosh).
Model for drug interactions in vitro: The analysis of interaction between two drugs was conducted using the additive model (Xu D., et al. Cancer Lett. 2006 Jan. 7; [Electronic publication; ahead of print]; Sutherland, R. L., et al. Cancer Res. 1983 September; 43(9):3998-4006). The model predicts the effect of a combination to be equal to the product of the effect of its constituents. […] A ratio between the observed and the predicted viability by the additive model was calculated for all combinations. […]

[2] = tested on: NF-kB-regulated gene products in H1299 cells; assay: Western blot of TNF-induced NF-kB-regulated gene products; assay type: cell-based, human
Protocol: (A) Honokiol inhibits COX-2, MMP-9, ICAM-1, and VEGF expression induced by TNF. H1299 cells (2×10^6/ml) were left untreated or incubated with […] honokiol for 12 h and then treated with 0.1 nM TNF for different times. Whole-cell extracts were prepared, and […] of the whole-cell lysate was analyzed by Western blotting using antibodies against VEGF, MMP-9, and COX-2. (B) Honokiol inhibits cyclin D1 and c-myc expression induced by TNF. H1299 cells (2×10^6/ml) were left untreated or incubated with […] honokiol for 12 h and then treated with 0.1 nM TNF for different times. Whole-cell extracts were prepared, and […] of the whole-cell lysate was analyzed by Western blotting using antibodies against cyclin D1 and c-myc. […] (C) Honokiol inhibits the expression of anti-apoptotic gene products cIAP1, cIAP2 Bcl-x1, Bcl-2, cFLIP, TRAF2, and survivin. H1299 cells (2×10^6/ml) were left untreated or incubated with […] honokiol for 12 h and then treated with 0.1 nM TNF for different times. Whole-cell extracts were prepared, and […] of the whole-cell lysate was analyzed by Western blotting using antibodies against IAP1, IAP2, bcl-x1, bcl-2, cFLIP, and survivin as indicated.
Western blot analysis. […] Cytoplasmic protein […] was resolved on 10% SDS-PAGE gel, transferred to a nitrocellulose membrane, blocked with 5% non-fat milk, and probed with specific antibodies against IkBa, posphorylated IkBa, p65, and phosphorylated p65. To determine the expression of cyclin D1, COX-2, MMP-9, cIAP-1, TRAF1, Bcl-2, Bfl-1, cFLIP, and survivin in whole-cell extracts of treated cells (2×10^6 cells in 2 ml of medium), […] of protein was resolved on SDS-PAGE and probed by Western blot with specific antibodies as per the manufacturer's recommended protocol. The blots were washed, exposed to HRP-conjugated secondary antibodies for 1 h, and finally detected by ECL reagent (Amersham Pharmacia Biotechnology, Piscataway, N.J.). The bands were quantified using a Personal Densitometer Scan v1.30 using Imagequant software version 3.3 (Molecular Dynamics). […]

[3] = tested on: HUVEC; assay: In Vitro Angiogenesis Assay (tube formation); assay type: cell-based, human; conditions: 8 ug/ml, 6 h

## C=CCc1ccc(O)c(-c2ccc(O)c(CC=C)c2)c1 [HNK, Honokiol]
[1]; HNK 10-50 μM with SAHA 2 μM, 24 hours
  interaction of HNK and SAHA (additive model): synergistic effect
[1]; with paclitaxel 250 nM, doxorubicin 300 nM, 4-HT 100 nM
  interaction of HNK and the other drugs tested (additive model): Additive effect
[2]; H1299
  TNF-induced expression of VEGF, COX-2, ICAM-1 and MMP-9: abolished the expression
  TNF-induced expression of cyclin D1 and c-myc: abolished, in a time-dependent fashion, the TNF-induced expression of cyclin D1 and c-myc
[2]; cIAP1, cIAP-2, BCl-2, Bcl-xL, cFLIP, TRAF1, and survivin
  TNF-induced expression of anti-apoptotic gene products: inhibited the TNF-induced expression of all of these proteins
[3]
  tube formation by endothelial cells: significantly inhibited the tube formation
